Source: patent US10519152B2, “Compounds and their use in treating cancer” (AstraZeneca AB, priority 2017, dated 2019)

Target: T1, recombinant human Estrogen Receptor alpha ligand binding domain, residues 307-554 (ER alpha-LBD (GST)) (Homo sapiens, UniProt P03372)
T1 construct: made in house
T1 sequence (P03372 307-554): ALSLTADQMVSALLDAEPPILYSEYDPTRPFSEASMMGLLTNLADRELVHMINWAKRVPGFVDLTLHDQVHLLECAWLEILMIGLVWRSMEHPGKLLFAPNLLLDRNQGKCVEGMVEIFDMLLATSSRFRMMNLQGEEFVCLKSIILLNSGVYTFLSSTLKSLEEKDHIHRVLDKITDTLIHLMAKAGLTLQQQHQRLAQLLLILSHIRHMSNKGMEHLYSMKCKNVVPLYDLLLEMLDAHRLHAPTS
Test: ERα binding assay (LanthaScreen TR-FRET competition)
Settings: TR-FRET competition with Fluormone ES2 tracer, 4 hours at room temperature; single experiment or average of two or more

Point of comparison: `Cc1ncsc1-c1ccc(CNC(=O)[C@@H]2C[C@@H](O)CN2C(=O)[C@@H](NC(=O)COCCOCCOCCOCCOCCOCC(=O)Nc2ccc([C@@H]3c4[nH]c5ccccc5c4C[C@@H](C)N3CC(C)(C)F)cc2)C(C)(C)C)cc1` [Example 54, N^1-(4-((1R,3R)-2-(2-fluoro-2-methylpropyl)-3-methyl-2,3,4,9-tetrahydro-1H-pyrido[3,4-b]indol-1-yl)phenyl)-N^18—((S)-1-((2S,4R)-4-hydroxy-2-(4-(4-methylthiazol-5-yl)benzylcarbamoyl)pyrrolidin-1-yl)-3,3-dimethyl-1-oxobutan-2-yl)-2,5,8,11,14,17-hexaoxaoctadecane-1,18-dicarboxamide, Trifluoroacetic Acid], IC50 16 nM. Against it:
- Cc1ncsc1-c1ccc([C@H](C)NC(=O)[C@@H]2C[C@@H](O)CN2C(=O)[C@@H](NC(=O)COCCCCCOCCOc2cc(F)c([C@@H]3c4[nH]c5ccccc5c4C[C@@H](C)N3CC(C)(C)F)c(F)c2)C(C)(C)C)cc1 [Example 157, (2S,4R)-1-((S)-2-(2-((5-(2-(3,5-Difluoro-4-((1R,3R)-2-(2-fluoro-2-methylpropyl)-3-methyl-2,3,4,9-tetrahydro-1H-pyrido[3,4-b]indol-1-yl)phenoxy)ethoxy)pentyl)oxy)acetamido)-3,3-dimethylbutanoyl)-4-hydroxy-N—((S)-1-(4-(4-methylthiazol-5-yl)phenyl)ethyl)pyrrolidine-2-carboxamide] — 20-fold lower, 0.8 nM
- Cc1ncsc1-c1ccc(CNC(=O)[C@@H]2C[C@@H](O)CN2C(=O)[C@@H](NC(=O)COCCCCC(=O)N(C)CCOc2cc(F)c([C@@H]3c4[nH]c5ccccc5c4C[C@@H](C)N3CC(C)(C)F)c(F)c2)C(C)(C)C)cc1 [Example 143, (2S,4R)-1-((S)-2-(2-((5-((2-(3,5-Difluoro-4-((1R,3R)-2-(2-fluoro-2-methylpropyl)-3-methyl-2,3,4,9-tetrahydro-1H-pyrido[3,4-b]indol-1-yl)phenoxy)ethyl)(methyl)amino)-5-oxopentyl)oxy)acetamido)-3,3-dimethylbutanoyl)-4-hydroxy-N-(4-(4-methylthiazol-5-yl)benzyl)pyrrolidine-2-carboxamide] — 15-fold lower, 1.1 nM
- Cc1ncsc1-c1ccc(CNC(=O)[C@@H]2C[C@@H](O)CN2C(=O)[C@@H](NC(=O)COCCOCCCCCOc2cc(F)c([C@@H]3c4[nH]c5ccccc5c4C[C@@H](C)N3CC(F)F)c(F)c2)C(C)(C)C)cc1 [Example 167, (2S,4R)-1-((S)-2-(2-(2-((5-(4-((1R,3R)-2-(2,2-Difluoroethyl)-3-methyl-2,3,4,9-tetrahydro-1H-pyrido[3,4-b]indol-1-yl)-3,5-difluorophenoxy)pentyl)oxy)ethoxy)acetamido)-3,3-dimethylbutanoyl)-4-hydroxy-N-(4-(4-methylthiazol-5-yl)benzyl)pyrrolidine-2-carboxamide] — 18-fold lower, 0.9 nM
- Cc1ncsc1-c1ccc([C@H](C)NC(=O)[C@@H]2C[C@@H](O)CN2C(=O)[C@@H](NC(=O)C(F)(F)OCCCOCCCOc2cc(F)c([C@@H]3c4[nH]c5ccccc5c4C[C@@H](C)N3CC(C)(C)F)c(F)c2)C(C)(C)C)cc1 [Example 120, (2S,4R)-1-((S)-2-(2-(3-(3-(3,5-Difluoro-4-((1R,3R)-2-(2-fluoro-2-methylpropyl)-3-methyl-2,3,4,9-tetrahydro-1H-pyrido[3,4-b]indol-1-yl)phenoxy)propoxy)propoxy)-2,2-difluoroacetamido)-3,3-dimethylbutanoyl)-4-hydroxy-N—((S)-1-(4-(4-methylthiazol-5-yl)phenyl)ethyl)pyrrolidine-2-carboxamide] — 18-fold lower, 0.9 nM
- Cc1ncsc1-c1ccc(CNC(=O)[C@@H]2C[C@@H](O)CN2C(=O)[C@@H](NC(=O)CNCCC(F)(F)CCOc2cc(F)c([C@@H]3c4[nH]c5ccccc5c4C[C@@H](C)N3CC(C)(C)F)c(F)c2)C(C)(C)C)cc1 [Example 131, (2S,4R)-1-((S)-2-(2-((5-(3,5-Difluoro-4-((1R,3R)-2-(2-fluoro-2-methylpropyl)-3-methyl-2,3,4,9-tetrahydro-1H-pyrido[3,4-b]indol-1-yl)phenoxy)-3,3-difluoropentyl)amino)acetamido)-3,3-dimethylbutanoyl)-4-hydroxy-N-(4-(4-methylthiazol-5-yl)benzyl)pyrrolidine-2-carboxamide] — 10-fold lower, 1.6 nM
- Cc1ncsc1-c1ccc([C@H](C)NC(=O)[C@@H]2C[C@@H](O)CN2C(=O)[C@@H](NC(=O)COCCc2ccc(COc3cc(F)c([C@@H]4c5[nH]c6ccccc6c5C[C@@H](C)N4CC(C)(C)F)c(F)c3)nc2)C(C)(C)C)cc1 [Example 159, (2S,4R)-1-((S)-2-(2-(2-(6-((3,5-Difluoro-4-((1R,3R)-2-(2-fluoro-2-methylpropyl)-3-methyl-2,3,4,9-tetrahydro-1H-pyrido[3,4-b]indol-1-yl)phenoxy)methyl)pyridin-3-yl)ethoxy)acetamido)-3,3-dimethylbutanoyl)-4-hydroxy-N—((S)-1-(4-(4-methylthiazol-5-yl)phenyl)ethyl)pyrrolidine-2-carboxamide] — 23-fold lower, 0.7 nM
- Cc1ncsc1-c1ccc(CNC(=O)[C@@H]2C[C@@H](O)CN2C(=O)[C@@H](NC(=O)COCCCOCCCCCOc2cc(F)c([C@@H]3c4[nH]c5ccccc5c4C[C@@H](C)N3CC(C)(C)F)c(F)c2)C(C)(C)C)cc1 [Example 138, (2S,4R)-1-((S)-2-(2-(3-((5-(3,5-Difluoro-4-((R,3R)-2-(2-fluoro-2-methylpropyl)-3-methyl-2,3,4,9-tetrahydro-1H-pyrido[3,4-b]indol-1-yl)phenoxy)pentyl)oxy)propoxy)acetamido)-3,3-dimethylbutanoyl)-4-hydroxy-N-(4-(4-methylthiazol-5-yl)benzyl)pyrrolidine-2-carboxamide] — 27-fold lower, 0.6 nM
- Cc1ncsc1-c1ccc(CNC(=O)[C@@H]2C[C@@H](O)CN2C(=O)[C@@H](NC(=O)CCCCCCOCCCOc2cc(F)c([C@@H]3c4[nH]c5ccccc5c4C[C@@H](C)N3CC(C)(C)F)c(F)c2)C(C)(C)C)cc1 [Example 110, (2S,4R)-1-((S)-2-(7-(3-(3,5-difluoro-4-((1R,3R)-2-(2-fluoro-2-methylpropyl)-3-methyl-2,3,4,9-tetrahydro-1H-pyrido[3,4-b]indol-1-yl)phenoxy)propoxy)heptanamido)-3,3-dimethylbutanoyl)-4-hydroxy-N-(4-(4-methylthiazol-5-yl)benzyl)pyrrolidine-2-carboxamide] — 23-fold lower, 0.7 nM
- COC(=O)[C@@H](C)CN1[C@H](c2c(F)cc(OCCOCCOCCOCC(=O)N[C@H](C(=O)N3C[C@H](O)C[C@H]3C(=O)NCc3ccc(-c4scnc4C)cc3)C(C)(C)C)cc2F)c2[nH]c3ccccc3c2C[C@H]1C [Example 29] — 2.7-fold lower, 5.9 nM
- Cc1ncsc1-c1ccc(CNC(=O)[C@@H]2C[C@@H](O)CN2C(=O)[C@@H](NC(=O)COCCc2ccc(COc3cc(F)c([C@@H]4c5[nH]c6ccccc6c5C[C@@H](C)N4CC(C)(C)F)c(F)c3)nc2)C(C)(C)C)cc1 [Example 158, (2S,4R)-1-((S)-2-(2-(2-(6-((3,5-Difluoro-4-((1R,3R)-2-(2-fluoro-2-methylpropyl)-3-methyl-2,3,4,9-tetrahydro-1H-pyrido[3,4-b]indol-1-yl)phenoxy)methyl)pyridin-3-yl)ethoxy)acetamido)-3,3-dimethylbutanoyl)-4-hydroxy-N-(4-(4-methylthiazol-5-yl)benzyl)pyrrolidine-2-carboxamide] — 20-fold lower, 0.8 nM
- Cc1ncsc1-c1ccc(CNC(=O)[C@@H]2C[C@@H](O)CN2C(=O)[C@@H](NC(=O)COCCC(F)(F)CCOc2cc(F)c([C@@H]3c4[nH]c5ccccc5c4C[C@@H](C)N3CC(C)(C)F)c(F)c2)C(C)(C)C)cc1 [Example 130, (2S,4R)-1-((S)-2-(2-((5-(3,5-Difluoro-4-((1R,3R)-2-(2-fluoro-2-methylpropyl)-3-methyl-2,3,4,9-tetrahydro-1H-pyrido[3,4-b]indol-1-yl)phenoxy)-3,3-difluoropentyl)oxy)acetamido)-3,3-dimethylbutanoyl)-4-hydroxy-N-(4-(4-methylthiazol-5-yl)benzyl)pyrrolidine-2-carboxamide] — 18-fold lower, 0.9 nM
- Cc1ncsc1-c1ccc(CNC(=O)[C@@H]2C[C@@H](O)CN2C(=O)[C@@H](NC(=O)COCCCCCOc2cc(F)c([C@@H]3c4[nH]c5ccccc5c4C[C@@H](C)N3CC(C)(C)F)c(F)c2)C(C)(C)C)cc1 [Example 18, (2S,4R)-1-((S)-2-(2-((5-(3,5-Difluoro-4-((1R,3R)-2-(2-fluoro-2-methylpropyl)-3-methyl-2,3,4,9-tetrahydro-1H-pyrido[3,4-b]indol-1-yl)phenoxy)pentyl)oxy)acetamido)-3,3-dimethylbutanoyl)-4-hydroxy-N-(4-(4-methylthiazol-5-yl)benzyl)pyrrolidine-2-carboxamide] — 27-fold lower, 0.6 nM
- Cc1ncsc1-c1ccc(CNC(=O)[C@@H]2C[C@@H](O)CN2C(=O)[C@@H](NC(=O)COCCCC2CN(CCOc3cc(F)c([C@@H]4c5[nH]c6ccccc6c5C[C@@H](C)N4CC(C)(C)F)c(F)c3)C2)C(C)(C)C)cc1 [Example 47, (2S,4R)-1-((S)-2-(2-(3-(1-(2-(3,5-difluoro-4-((1R,3R)-2-(2-fluoro-2-methylpropyl)-3-methyl-2,3,4,9-tetrahydro-1H-pyrido[3,4-b]indol-1-yl)phenoxy)ethyl)azetidin-3-yl)propoxy)acetamido)-3,3-dimethylbutanoyl)-4-hydroxy-N-(4-(4-methylthiazol-5-yl)benzyl)pyrrolidine-2-carboxamide] — 23-fold lower, 0.7 nM
